Results published in patent US4935362A, “BMY-28121, a new antitumor antibiotic” (Bristol-Myers Company, priority 1987, dated 1990).
Converted amounts (≈) assume the structure as drawn. Read-outs that look alike come from different tables or passages of the source.

Tests used:
[1] = system: Micrococcus luteus PCI-1001; assay: microbe, parasite or virus in culture; assay type: cell-based
[2] = system: Bacillus subtilis PCI-219; assay: microbe, parasite or virus in culture; assay type: cell-based
[3] = system: Bacteriodes fragilis A22534; assay type: cell-based
[4] = system: Bacteriodes fragilis A22695; assay type: cell-based
[5] = system: Bacteriodes fragilis A22533; assay type: cell-based
[6] = system: Bacteriodes fragilis CUH-108; assay type: cell-based
[7] = system: Staphylococcus aureus 52-34; assay type: cell-based; settings: 5234
[8] = system: Staphylococcus aureus A20239; assay type: cell-based
[9] = system: Staphylococcus aureus BX-1633; assay type: cell-based
[10] = system: Staphylococcus aureus A15097; assay type: cell-based
[11] = system: Staphylococcus epidermidis D153; assay type: cell-based
[12] = system: Strpetococcus faecalis A9612; assay type: cell-based
Escherichia coli NIHJ = assay type: cell-based
[13] = system: Klebsiella pnuemonia D-11; assay type: cell-based; settings: D11
Proteus mirabilis A9554 = assay type: cell-based
Proteus vulgaris A9436 = assay type: cell-based
[14] = system: Morganella morganii A9553; assay type: cell-based
[15] = system: Serratia marcescens A20222; assay: microbe, parasite or virus in culture; assay type: cell-based
[16] = system: Pseudomonas aeruginosa A9930; assay type: cell-based
[17] = system: Enterobacter cloacae A9659; assay: microbe, parasite or virus in culture; assay type: cell-based
[18] = system: Propionibacterium acnes A21933; assay type: cell-based; settings: Cutibacterium acnes
[19] = system: Peptostreptococcus anaerobius A21905; assay type: cell-based
[20] = system: Bacteriodes fragilis A22053; assay type: cell-based
[21] = system: Bacteriodes fragilis A22021; assay type: cell-based
[22] = system: aerobic gram-negative organisms; assay type: cell-based
P388 leukemia = assay type: in vivo, mice (male BDF1 strain); settings: for T/C % of MST: ip, once daily for 9 days
[23] = system: various gram-positive and anaerobic bacteria; assay type: cell-based
[24] = system: Staphylococcus aureus D136; assay type: cell-based
[25] = system: Clostridium perfringens A22787; assay: microbe, parasite or virus in culture; assay type: cell-based
[26] = system: aerobic gram-positive bacteria; assay type: cell-based
anaerobic bacteria = assay type: cell-based
L1210 leukemia = assay: Antitumor activity in mice, L1210 leukemia; assay type: in vivo, mice (male BDF1 strain); settings: ip; for T/C % of MST: once daily for 9 days
B16 melanoma = assay: Antitumor activity in mice, B16 melanoma; assay type: in vivo, mice (male BDF1 strain); settings: ip; for T/C % of MST: once daily for 9 days
[27] = system: Clostridium difficile A21675; assay type: cell-based; settings: Clostridioides difficile, GAM agar, 10^7-10^8 inoculum
[28] = system: Bacteriodes fragilis A22693; assay type: cell-based; settings: GAM agar, 10^7-10^8 inoculum
[29] = system: Staphylococcus epidermidis A22152; assay type: cell-based
[30] = Bacteriodes fragilis A22695, GAM agar, 10^7-10^8 inoculum, read-out: MIC
[31] = Bacteriodes fragilis A22533, GAM agar, 10^7-10^8 inoculum, read-out: MIC
[32] = Bacteriodes fragilis CUH-108, GAM agar, 10^7-10^8 inoculum, read-out: MIC

CC1(C)S[C@@H]2[C@H](NC(=O)[C@H](N)c3ccccc3)C(=O)N2[C@H]1C(=O)O [Ampicillin, reference compound]
MIC ([1]; PCI1001, read-out: MIC): < 0.0063 mg/L
MIC ([2]; PCI219): 0.025 mg/L (≈ 0.0715 µM)
MIC ([3]; Bacteriodes fragilis A22534, GAM agar, 10^7-10^8 inoculum, read-out: MIC): > 100 mg/L
MIC [4, 30]: > 100 mg/L
MIC [5, 31]: > 100 mg/L
MIC [6, 32]: 50 mg/L (≈ 143 µM)

COc1cccc2c1N[C@H](O)[C@@H]1CC(/C=C/C(=O)N(C)C)=CN1C2=O [BMY-28121 A]
MIC [7]: 3.1 mg/L (≈ 9.03 µM)
MIC [8]: 12.5 mg/L (≈ 36.4 µM)
MIC ([9]; BX1633): 12.5 mg/L (≈ 36.4 µM)
MIC [10]: 12.5 mg/L (≈ 36.4 µM)
MIC [11]: 3.1 mg/L (≈ 9.03 µM)
MIC [12]: 12.5 mg/L (≈ 36.4 µM)
MIC ([1]; PCI1001): 12.5 mg/L (≈ 36.4 µM)
MIC (Escherichia coli NIHJ): 50 mg/L (≈ 146 µM)
MIC [13]: > 50 mg/L
MIC (Proteus mirabilis A9554): > 50 mg/L
MIC (Proteus vulgaris A9436): > 50 mg/L
MIC [14]: > 50 mg/L
MIC [15]: > 50 mg/L
MIC [16]: > 50 mg/L
MIC [17]: > 50 mg/L
MIC ([18]; read-out: MIC): 0.4 mg/L (≈ 1.16 µM)
MIC ([19]; read-out: MIC): 0.4 mg/L (≈ 1.16 µM)
MIC ([20]; read-out: MIC): 0.8 mg/L (≈ 2.33 µM)
MIC ([21]; read-out: MIC): 0.8 mg/L (≈ 2.33 µM)
MIC ([6]; read-out: MIC): 0.8 mg/L (≈ 2.33 µM)
in vitro activity against aerobic gram-negative organisms [22]: did not show any in vitro activity
antitumor activity against experimental tumors in mice (P388 leukemia; mouse, in vivo): marked antitumor activity
times more active than mitomycin C in terms of minimum effective dose (P388 leukemia; mouse, in vivo): approximately 4 times
antibacterial activity [23]: possess antibacterial activity

COc1cccc2c1N[C@H](OC)[C@@H]1CC(/C=C/C(=O)N(C)C)=CN1C2=O [BMY-28121 B, 1,10,11,11a-tetrahydro-9,11-dimethoxy-5H-pyrrolo-[2,1-c][1,4]benzodiazepine-5-one-2-N,N-dimethylacrylamide]
MIC [24]: 6.3 mg/L (≈ 17.6 µM)
MIC [8]: 6.3 mg/L (≈ 17.6 µM)
MIC ([9]; BX1633): 6.3 mg/L (≈ 17.6 µM)
MIC [10]: 6.3 mg/L (≈ 17.6 µM)
MIC [12]: 6.3 mg/L (≈ 17.6 µM)
MIC ([1]; PCI1001): 12.5 mg/L (≈ 35 µM)
MIC (Escherichia coli NIHJ): > 50 mg/L
MIC [13]: > 50 mg/L
MIC (Proteus mirabilis A9554): > 50 mg/L
MIC (Proteus vulgaris A9436): > 50 mg/L
MIC [14]: > 50 mg/L
MIC [15]: > 50 mg/L
MIC [16]: > 50 mg/L
MIC [17]: > 50 mg/L
MIC [25]: 0.4 mg/L (≈ 1.12 µM)
MIC [18]: 0.4 mg/L (≈ 1.12 µM)
MIC [19]: 0.2 mg/L (≈ 0.56 µM)
MIC [20]: 0.4 mg/L (≈ 1.12 µM)
MIC [21]: 0.2 mg/L (≈ 0.56 µM)
MIC [3]: 0.4 mg/L (≈ 1.12 µM)
MIC [4]: 0.4 mg/L (≈ 1.12 µM)
MIC [5]: 0.8 mg/L (≈ 2.24 µM)
MIC [6]: 0.4 mg/L (≈ 1.12 µM)
susceptibility of aerobic gram-positive bacteria [26]: moderately susceptible
in vitro activity against aerobic gram-negative organisms [22]: did not show any in vitro activity
inhibition of anaerobic bacteria (anaerobic bacteria): inhibited all of the gram-positive and negative organisms
T/C % of MST (P388 leukemia; 0.008 mg/kg/day, P388 leukemia): 120%
T/C % of MST (P388 leukemia; 0.13 mg/kg/day, P388 leukemia): 200%
T/C % of MST (P388 leukemia; 0.25 mg/kg/day, P388 leukemia): 210%
times more active than mitomycin C in terms of minimum effective dose (P388 leukemia; P388 leukemia, vs mitomycin C): approximately 4 times
antitumor activity against experimental tumors in mice (P388 leukemia; eg. P388 leukemia in mice): marked antitumor activity
T/C % of MST (L1210 leukemia; 0.13 mg/kg/day): 129%
T/C % of MST (L1210 leukemia; 0.25 mg/kg/day): 129%
therapeutic activity against L1210 leukemia (L1210 leukemia): potent therapeutic activity
T/C % of MST (B16 melanoma; 0.13 mg/kg/day): 113%
T/C % of MST (B16 melanoma; 0.25 mg/kg/day): 131%
activity against B16 melanoma (B16 melanoma): marginally active
antibacterial activity [23]: possess antibacterial activity
solubility (in ethyl acetate and ethyl ether): slightly soluble
solubility (in methanol, ethanol, chloroform, pyridine, and dimethylformamide): readily soluble
solubility (in n-hexane and water): practically insoluble

CCC[C@@H]1C[C@@H](C(=O)N[C@@H]([C@H]2O[C@H](SC)[C@H](O)[C@@H](O)[C@H]2O)[C@H](C)Cl)N(C)C1 [Clindamycin]
MIC [27]: 50 mg/L (≈ 118 µM)
MIC [28]: 0.1 mg/L (≈ 0.235 µM)
MIC ([20]; Bacteriodes fragilis A22053, GAM agar, 10^7-10^8 inoculum, read-out: MIC): 0.2 mg/L (≈ 0.471 µM)
MIC ([21]; Bacteriodes fragilis A22021, GAM agar, 10^7-10^8 inoculum, read-out: MIC): 0.1 mg/L (≈ 0.235 µM)
MIC [4, 30]: 0.1 mg/L (≈ 0.235 µM)
MIC [5, 31]: 0.1 mg/L (≈ 0.235 µM)
MIC [6, 32]: 100 mg/L (≈ 235 µM)

NC[C@H]1O[C@H](O[C@H]2[C@H](O)[C@@H](O[C@H]3O[C@H](CO)[C@@H](O)[C@H](N)[C@H]3O)[C@H](N)C[C@@H]2N)[C@H](O)[C@@H](O)[C@@H]1O [Kanamycin, reference compound]
MIC ([24]; read-out: MIC): 0.8 mg/L (≈ 1.65 µM)
MIC [7]: 0.8 mg/L (≈ 1.65 µM)
MIC [8]: 100 mg/L (≈ 206 µM)
MIC ([9]; BX1633, read-out: MIC): 0.8 mg/L (≈ 1.65 µM)
MIC ([10]; read-out: MIC): 0.8 mg/L (≈ 1.65 µM)
MIC [11]: 0.8 mg/L (≈ 1.65 µM)
MIC [29]: 25 mg/L (≈ 51.6 µM)
MIC [12]: 25 mg/L (≈ 51.6 µM)
MIC ([1]; PCI1001): 6.3 mg/L (≈ 13 µM)
MIC ([2]; PCI219, read-out: MIC): 0.2 mg/L (≈ 0.413 µM)
MIC (Escherichia coli NIHJ; read-out: MIC): 1.6 mg/L (≈ 3.3 µM)
MIC [13]: 0.4 mg/L (≈ 0.826 µM)
MIC (Proteus mirabilis A9554): 6.3 mg/L (≈ 13 µM)
MIC (Proteus vulgaris A9436; read-out: MIC): 0.8 mg/L (≈ 1.65 µM)
MIC [14]: 6.3 mg/L (≈ 13 µM)
MIC ([15]; read-out: MIC): 3.1 mg/L (≈ 6.4 µM)
MIC [16]: 6.3 mg/L (≈ 13 µM)
MIC ([17]; read-out: MIC): 3.1 mg/L (≈ 6.4 µM)

CO[C@@]12[C@H](COC(N)=O)C3=C(C(=O)C(C)=C(N)C3=O)N1C[C@@H]1N[C@@H]12 [Mitomycin C, reference compound]
T/C % of MST (P388 leukemia; 0.13 mg/kg/day, P388 leukemia): 150%
T/C % of MST (P388 leukemia; 0.25 mg/kg/day, P388 leukemia): 180%
T/C % of MST (P388 leukemia; 0.5 mg/kg/day, P388 leukemia): 240%
T/C % of MST (P388 leukemia; 1 mg/kg/day, P388 leukemia): 450%
T/C % of MST (L1210 leukemia; 0.13 mg/kg/day): 129%
T/C % of MST (L1210 leukemia; 0.25 mg/kg/day): 129%
T/C % of MST (L1210 leukemia; 0.5 mg/kg/day): 141%
T/C % of MST (L1210 leukemia; 1 mg/kg/day): 141%
T/C % of MST (B16 melanoma; 0.5 mg/kg/day): 164%
T/C % of MST (B16 melanoma; 1 mg/kg/day): 191%
